The values that follow come from patent EP4595966A1, “USE OF NPY/Y5R INHIBITOR IN TREATING LIVER METASTASIS” (Friedrich-Alexander-Universität Erlangen-Nürnberg, priority 2024, dated 2025).

Data set [1] has as its system human melanoma cells (SkMel28). Kind of data set: Clonogenicity assays (two- and three-dimensional colony formation), human melanoma cells. Type of data set: cell-based. The following applies: human (metastatic) melanoma cells. The source says: (§1) • Figure 1 A-B. Boyden chamber analysis and representative images (10-fold original magnification) of chemotaxis of human melanoma cells (SkMel28) towards recombinant NPY (lower chamber) with or without application of Y5R specific inhibitor CGP71683 (Y5Ri) (upper chamber) compared to migration towards serum free medium (n = 9). Arrowheads indicate migrated cells. • Figure 2. Representative images of colony number and colony size of human melanoma cells (SkMel28) in clonogenicity assays with application of increasing concentrations of Y5R inhibitor (Y5Ri) (n = 3). • Figure 3. Schematic illustration of the experimental procedure: splenic injection of murine melanoma cells (B16) in C57BL/6 mice on day 0; intraperitoneal injection of Y5R inhibitor CGP71683 (Y5Ri) (15 mg/kg body weight per injection) or solvent only (DMSO) as control on indicated days; end of experiment eight days after cell implantation. • Figure 4. Explanted metastases bearing spleens and livers of DMSO (control) and Y5Ri treated mice after splenic injection of B16 melanoma cells. • Figure 5. Macroscopic classification of livers from DMSO (n = 11) and Y5Ri treated mice (n = 9) into very low / low versus moderate / high liver metastasis. • Figure 6. A. CHK2 level in NPY^-/- mice compared to control WT mice measured by IHC analysis. B. CHK2 level in Y5Ri-treated mice compared to control DMSO-treated mice measured by IHC analysis. • Figure 7. […] A. Quantification of NPY mRNA expression levels in liver tissues from mice treated with control LNPs ("Control", LNPs bearing control siRNA pool, n = 11) and from mice treated with LNPs bearing siRNA pool targeting murine NPY ("LNP-siNPY", n = 11). B. Quantification of NPY protein levels in liver tissues from mice treated with control LNPs (n = 11) and LNP-siNPY treated mice (n = 11). • Figure 9 A-B. ELISA based protein expression analysis of absolute NPY levels in liver tissues and serum samples from LNP-siNPY treated mice (n = 10) compared to mice treated with control LNPs (LNPs bearing control siRNA pool, n = 11) after splenic melanoma cell injection. • Figure 10. […] A. Quantification of number of metastases in liver tissues from LNP-siNPY treated mice (n = 10) compared to mice treated with control LNPs (LNPs bearing control siRNA pool, n = 11). B. Quantification of metastases size in liver tissues from LNP-siNPY treated mice (n = 10) compared to mice treated with control LNPs (LNPs bearing control siRNA pool, n = 11). • Figure 13. […] A. Quantification of pERK protein expression in metastatic liver tissue samples of LNP-siNPY treated mice (n = 6) compared to mice treated with control LNPs (LNPs bearing control siRNA pool, n = 6). […]

Data set [2] deals with human melanoma cells (SkMel28). The experiment in a line: Boyden chamber chemotactic migration, human melanoma cells. Type of data set: cell-based. Conditions: for NPY-induced chemotactic migration: melanoma cells, migration towards recombinant NPY, co-treatment with the substance.
Excerpt: as §1

In data set [3] the test system is CRC, PC and BC cell lines. The experiment in a line: Clonogenicity assays, CRC, PC and BC cell lines. The data set is classed as cell-based. The source says:
(§2) Normal human epidermal melanocytes (NHEM), the human primary melanoma cell lines Mel Juso, Mel Ei, Mel Wei and metastatic human melanoma cell lines SkMel28 (ATCC CRL-1469™), Mel Im, Mel Ju, SkMel3 (ATCC HTB-69™) were described previously (Jacob et al., 1998; Heimerl et al., 2007). Primary human hepatocytes (PHH) were isolated and cultured as described elsewhere (Dietrich et al., 2017; Lee et al., 2013). In addition, the human breast cancer cell line MCF-7 (ATCC HTB-22™), the human pancreatic cancer cell line Panc-1 (ATCC CRL-1469™) and the human colon cancer cell lines HT29 (ATCC HTB-38™), Caco-2 (ATCC HTB-37™) and LoVo (ATCC CCL-229™) were used. The murine melanoma cell line B16 (ATCC CRL-6475™) was used for in vitro and in vivo studies. Furthermore, the murine pancreatic cancer cell line KPC and the murine colon cancer cell lines MC38 and CT26 (ATCC CRL-2638™) were used. Table 4. Summary and additional information of human and murine cell lines. BC: Breast cancer. CRC: Colorectal cancer. Hetero: Heterozygous genotype. Homo: Homozygous genotype. MET: Metastatic melanoma cell line. MM: Malignant melanoma. Nd: not determined / missing. PC: Pancreatic cancer. PT: Primary tumor melanoma cell line. Peri-tumor: Tumor-surrounding liver tissue. IR: immunoreactivity (score).
As described previously (Dietrich et al., 2017), clonogenic assays were performed to analyze stem cell behavior, attachment dependent colony formation and growth of cancer cells.
Anchorage independent colony formation and growth of cancer cells were analyzed using soft agar colony formation assays as described previously (Borowicz et al., 2014). Treatment with specific agonists and antagonists started 24 h after tumor cell seeding. Treatment was repeated after five and nine days. Microscopic analysis of the obtained colonies was conducted 14 days after tumor cell seeding.

Data set [4] concerns CRC, PC and BC cell lines. The experiment in a line: Boyden chamber NPY-mediated chemotactic migration, CRC, PC and BC cell lines. The data set is classed as cell-based.
Excerpt: as §2
As described previously (Dietrich et al., 2017), Boyden chamber assays were used in order to analyze cell migration. Boyden chamber filters were additionally coated with Matrigel to analyze cell invasion.

The subject of data set [5] is B16 melanoma cells (liver metastasis). The experiment in a line: Spleen-liver metastasis model with Y5R inhibitor treatment. The data set is classed as in vivo, C57BL/6 mice. The text has this:
• Figure 1 A-B. Boyden chamber analysis and representative images (10-fold original magnification) of chemotaxis of human melanoma cells (SkMel28) towards recombinant NPY (lower chamber) with or without application of Y5R specific inhibitor CGP71683 (Y5Ri) (upper chamber) compared to migration towards serum free medium (n = 9). Arrowheads indicate migrated cells. • Figure 2. Representative images of colony number and colony size of human melanoma cells (SkMel28) in clonogenicity assays with application of increasing concentrations of Y5R inhibitor (Y5Ri) (n = 3). • Figure 3. Schematic illustration of the experimental procedure: splenic injection of murine melanoma cells (B16) in C57BL/6 mice on day 0; intraperitoneal injection of Y5R inhibitor CGP71683 (Y5Ri) (15 mg/kg body weight per injection) or solvent only (DMSO) as control on indicated days; end of experiment eight days after cell implantation. • Figure 4. Explanted metastases bearing spleens and livers of DMSO (control) and Y5Ri treated mice after splenic injection of B16 melanoma cells. • Figure 5. Macroscopic classification of livers from DMSO (n = 11) and Y5Ri treated mice (n = 9) into very low / low versus moderate / high liver metastasis. • Figure 6. A. CHK2 level in NPY^-/- mice compared to control WT mice measured by IHC analysis. B. CHK2 level in Y5Ri-treated mice compared to control DMSO-treated mice measured by IHC analysis. • Figure 7. Schematic illustration of the experimental procedure: pre-treatment of C57BL/6 mice with lipid nanoparticles (LNP) bearing control siRNA pool or siNPY pool (pool of siRNAs targeting murine NPY) one day before surgery (day -1); splenic injection of murine melanoma cells (B16) on day 0; intraperitoneal injection of LNPs with control siRNA pool or siNPY pool as indicated; end of experiment six days after cell implantation. • Figure 8. A. Quantification of NPY mRNA expression levels in liver tissues from mice treated with control LNPs ("Control", LNPs bearing control siRNA pool, n = 11) and from mice treated with LNPs bearing siRNA pool targeting murine NPY ("LNP-siNPY", n = 11). B. Quantification of NPY protein levels in liver tissues from mice treated with control LNPs (n = 11) and LNP-siNPY treated mice (n = 11). • Figure 9 A-B. ELISA based protein expression analysis of absolute NPY levels in liver tissues and serum samples from LNP-siNPY treated mice (n = 10) compared to mice treated with control LNPs (LNPs bearing control siRNA pool, n = 11) after splenic melanoma cell injection. • Figure 10. […] A. Quantification of number of metastases in liver tissues from LNP-siNPY treated mice (n = 10) compared to mice treated with control LNPs (LNPs bearing control siRNA pool, n = 11). B. Quantification of metastases size in liver tissues from LNP-siNPY treated mice (n = 10) compared to mice treated with control LNPs (LNPs bearing control siRNA pool, n = 11). • Figure 13. […] A. Quantification of pERK protein expression in metastatic liver tissue samples of LNP-siNPY treated mice (n = 6) compared to mice treated with control LNPs (LNPs bearing control siRNA pool, n = 6). B. Quantification of pCHK2 protein expression in metastatic liver tissue samples of LNP-siNPY treated mice (n = 6) compared to samples from control treatment (control siPool bearing LNPs) (n = 6). • Figure 15. […]

A further data set concerns metastatic CRC organoids. Kind of data set: Ki67 expression in metastatic CRC organoids. Type of data set: cell-based, murine. Conditions: vs controls. As for the experimental part:
Murine APTAK organoids were used for in vitro and in vivo experiments. These APTAK tumor organoids are deficient in Apc, Tp53, Tgfbr2 and express constitutively activated Kras and activated Akt1. Organoids were generated and CRC models were conducted in a similar way as previously described (Heichler et al., 2020). In an orthotopic mouse model for CRC and CRC (liver) metastasis, single cell suspensions from genetically engineered APTAK organoids were injected into the submucosa of wildtype mice.
Immunohistochemistry (IHC) and immunofluorescence analyses were performed using tissue microarrays consisting of human cancer tissue samples and mouse paraffin-embedded tissue sections as described previously (Dietrich et al., 2017; Dietrich et al., 2020). […] For each antibody, immunohistochemistry staining was evaluated semi-quantitatively and scores were calculated as described previously (Dietrich et al., 2017; Dietrich et al., 2020).

The next data set relates to pCHK2. The experiment in a line: pCHK2 levels in melanoma cells in vitro. The data set is classed as cell-based. The following applies: (metastatic) melanoma cells in vitro. Here is the method: As described in detail in previous studies (Dietrich et al., 2017), Western blots and densitometric quantification were performed using the following primary antibodies: anti-β-actin antibody (catalog no. A1978, Sigma-Aldrich; 1 in 5,000 dilution), anti-phospho-ERK antibody (catalog no. #9101, Cell Signaling, Frankfurt am Main, Germany; 1 in 4,000 dilution), anti-ERK antibody (catalog no. #9102, Cell Signaling; 1 in 1,000 dilution), anti-phospho-AKT antibody (catalog no. #9271, Cell Signaling, Frankfurt am Main, Germany; 1 in 2000 dilution), anti-AKT (catalog no. #9272, Cell Signaling, Frankfurt am Main, Germany; 1 in 2000 dilution), anti-Y5R antibody (catalog no. ab133757, Abcam; 1 in 30,000 dilution), anti-phospho-Chk2 antibody (catalog no. #2661, Cell Signaling, Frankfurt am Main, Germany; 1 in 1000 dilution), anti-phospho-p53 antibody (catalog no. #9284, Cell Signaling, Frankfurt am Main, Germany; 1 in 1000 dilution).

On to `CC(=O)O[C@H]1[C@H]2O[C@]23[C@@H]2CC[C@@H]4C[C@@H](O)CC[C@]4(C)[C@H]2CC[C@]3(C)[C@H]1c1ccc(=O)oc1` [Cinobufagin], for which the clonogenicity result in data set [1] is “strongly reduced clonogenicity”.

In the case of `NC(=O)NCc1ccc(CNC(=O)[C@@H](CCCN=C(N)N)NC(=O)C(c2ccccc2)c2ccccc2)cc1` [Y1Ri], the NPY-induced chemotactic migration result in data set [2] is on record as “not altered”. For the same compound, the clonogenicity result in data set [1] was “not affected”; in data set [3] (CRC cells) it was “did not affect”; in data set [3] (PC and BC cell lines), “did not affect clonogenicity”. In addition, the NPY-mediated chemotactic migration entry in data set [4] (CRC cells) is “did not affect”; in data set [4] (PC and BC cell lines), “sufficient to reduce NPY-mediated chemotactic migration”.

On to `N=C(N)NCCC[C@H](NC(=O)CC1(CC(=O)N2CCN(C3c4ccccc4NC(=O)c4ccccc43)CC2)CCCC1)C(=O)NCCn1c(=O)n(-c2ccccc2)n(-c2ccccc2)c1=O` (stereo partly drawn) [Y2Ri], for which the NPY-induced chemotactic migration result in data set [2] was “not altered”. For the same compound, the clonogenicity entry in data set [1] was “not affected”; in data set [3] (CRC cells) it was “did not affect”; in data set [3] (PC and BC cell lines), “did not affect clonogenicity”. In addition, the NPY-mediated chemotactic migration result was “did not affect” in data set [4] (CRC cells); “not affected” in data set [4] (PC and BC cell lines).

On to `Nc1nc(NC[C@H]2CC[C@H](CNS(=O)(=O)c3cccc4ccccc34)CC2)nc2ccccc12` [Y5Ri, N-[[trans-4-[[(4-amino-2-quinazolinyl)amino]methyl]cyclohexyl]methyl]-1-naphthalenesulfonamide], for which the “chemotactic migration induced by hepatocyte-derived, NPY-containing supernatants or by liver lysates from wildtype mice” value in data set [2] (concomitant Y5R-inhibition) is recorded as “significantly reduced”. In data set [2], the NPY-induced chemotactic migration entry is “antagonized NPY-induced chemotactic migration”. Besides, the clonogenicity entry in data set [1] was “strongly reduced clonogenicity”; in data set [3] (CRC, PC and BC cell lines), “confirmed”. Besides, the liver transaminases entry in data set [5] (mice, 15 mg/kg i.p. every 24 h) was “did not affect”. Further, the “cleaved caspase 3 expression in liver metastatic cells” value in data set [5] (mice, IHC) is “only slightly, however not significantly, enhanced”. In addition, the liver metastasis result in data set [5] (splenic injection of B16 cells, 15 mg/kg i.p. every 24 h, vs vehicle control) is listed as “significantly reduced liver metastasis”. Further, in data set [5] (treated mice vs controls, IHC (Figure 6B)), the “pCHK2 in liver metastasis” value is on record as “significant induction”. Further, the “Ki67 expression in liver metastasis” value in data set [5] (treated vs control-treated mice, IHC) was “significantly reduced”. Also, the Ki67 expression result in the data set on metastatic CRC organoids is given as “significantly reduced Ki67 expression”. In addition, the pCHK2 levels entry in the data set with pCHK2 is reported as “induced pCHK2”.
